pIC50: −log10 of the molar value.
Legend:
[1] = molecular target: T1, GST-tagged recombinant human TYRO3 kinase domain (Homo sapiens, UniProt Q06418); assay: TYRO3 Enzyme Assay (LanthaScreen Eu Kinase Binding); details: averaged IC50; TYRO3 5 nM; 60-minute incubation at 22° C.; TR-FRET
T1 construct: GST-tagged recombinant human TYRO3 kinase domain; purchased Carna PR7480A
T1 sequence (Q06418 518-790 limits assumed): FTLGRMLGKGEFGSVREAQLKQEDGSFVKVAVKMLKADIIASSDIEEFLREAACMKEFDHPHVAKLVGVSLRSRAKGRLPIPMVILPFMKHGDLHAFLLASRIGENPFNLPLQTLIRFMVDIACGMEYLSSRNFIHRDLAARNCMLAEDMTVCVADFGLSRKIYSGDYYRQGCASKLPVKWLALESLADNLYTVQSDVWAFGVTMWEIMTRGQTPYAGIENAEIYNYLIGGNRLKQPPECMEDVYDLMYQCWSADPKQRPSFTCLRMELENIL
Protocol: Compounds disclosed herein were screened for their ability to inhibit TYRO3 kinase using Invitrogen's LanthaScreenTM Eu Kinase Binding technology. GST-tagged recombinant human TYRO3 kinase domain from Carna (5 nM; Cat. No. P[…]) was incubated with 20 nM Alexa-Fluor® Tracer 236 (P[…]) and 2 nM Europium-anti-GST (Cat. No. A15116) along with test compound in a buffer consisting of 25 mM HEPES, pH 7.4, 10 mM MgCl2, 0.01% Triton X-100, and 2% DMSO. Compounds are typically prepared in a threefold serial dilution in DMSO and added to the assay to give the appropriate final concentration. After a 60-minute incubation at 22° C., the reaction was measured using a PerkinElmer EnVision multimode plate reader via TR-FRET dual wavelength detection, and the percent of control (POC) calculated using a ratiometric emission factor. […] The POC values were fit to a 4 parameter logistic curve and the IC50 value is point where the curve crosses 50 POC.

[2] = molecular target: T2, MET (wt) GST-tagged recombinant human MET kinase domain (Homo sapiens, UniProt P08581); assay: c-Met Enzyme Assay, wild type (LanthaScreen Eu Kinase Binding); details: averaged IC50; MET (wt) 10 nM; 60-minute incubation at 22° C.; read-out: SigChem WT IC50
T2 construct: GST-tagged recombinant human MET kinase domain; purchased Signal Chem
Protocol: (§1) The affinity of compound binding to wild type and mutant human MET kinases was measured using Invitrogen's LanthaScreen™ Eu Kinase Binding technology. Briefly, GST-tagged recombinant human MET kinase domain from Signal Chem (see Table 8 below for concentration in assay) was incubated with 50 nM Alexa-Fluor® Tracer 236 (Invitrogen Cat No. PR9078A) and 2 nM Europium-anti-GST (Invitrogen Cat. No. A15116) along with test compound in a buffer consisting of 25 mM HEPES, pH 7.4, 10 mM MgCl2, 0.01% Triton X-100, 1mM DTT, and 2% DMSO. Compounds were typically prepared in a three-fold serial dilution in DMSO and added to the assay to give the appropriate final concentration. After a 60-minute incubation at 22° C., the reaction was measured using a PerkinElmer EnVision multimode plate reader via TR-FRET dual wavelength detection, and the percent of control (POC) calculated using a ratiometric emission factor. […] The POC values were fit to a 4 parameter logistic curve and the IC50 value is point where the curve crosses 50 POC.

[3] = molecular target: T3, human MET kinase del Ex14 (Homo sapiens, UniProt P08581, DEL963-1009); assay: c-Met Enzyme Assay, del Ex14 mutant; assay type: binding; details: averaged IC50; del Ex14 5 nM; 60-minute incubation at 22° C.; read-out: Del14 IC50
T3 construct: GST-tagged recombinant human MET kinase domain; purchased Signal Chem
Protocol: as §1

human MET kinase D1228H = molecular target: T4, human MET kinase D1228H (Homo sapiens, UniProt P08581, D1228H); assay: c-Met Enzyme Assay, D1228H mutant; assay type: binding; details: averaged IC50; D1228H 2 nM; 60-minute incubation at 22° C.; read-out: D1228 H IC50
T4 construct: GST-tagged recombinant human MET kinase domain; purchased Signal Chem
Protocol: as §1

human MET kinase F1200I = molecular target: T5, human MET kinase F1200I (Homo sapiens, UniProt P08581, F1200I); assay: c-Met Enzyme Assay, F1200I mutant; assay type: binding; details: averaged IC50; F1200I 2 nM; 60-minute incubation at 22° C.
T5 construct: GST-tagged recombinant human MET kinase domain; purchased Signal Chem
Protocol: as §1

human MET kinase Y1230C = molecular target: T6, human MET kinase Y1230C (Homo sapiens, UniProt P08581, Y1230C); assay: c-Met Enzyme Assay, Y1230C mutant; assay type: binding; details: averaged IC50; Y1230C 2 nM; 60-minute incubation at 22° C.; read-out: Y1230 C IC50
T6 construct: GST-tagged recombinant human MET kinase domain; purchased Signal Chem
Protocol: as §1

human MET kinase Y1230S = molecular target: T7, human MET kinase Y1230S (Homo sapiens, UniProt P08581, Y1230S); assay: c-Met Enzyme Assay, Y1230S mutant; assay type: binding; details: averaged IC50; Y1230S 8 nM; 60-minute incubation at 22° C.; read-out: Y1230 S IC50
T7 construct: GST-tagged recombinant human MET kinase domain; purchased Signal Chem
Protocol: as §1

T2 sequence (P08581 1078-1345 limits assumed): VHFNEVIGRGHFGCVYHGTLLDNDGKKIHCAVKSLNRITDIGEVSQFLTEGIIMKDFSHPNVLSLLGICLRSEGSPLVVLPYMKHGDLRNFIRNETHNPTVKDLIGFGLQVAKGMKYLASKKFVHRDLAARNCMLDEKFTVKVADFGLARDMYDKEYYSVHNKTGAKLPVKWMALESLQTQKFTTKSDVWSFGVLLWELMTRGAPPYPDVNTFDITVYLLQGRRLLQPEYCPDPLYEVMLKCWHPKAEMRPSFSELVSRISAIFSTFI
T7 sequence (P08581 1078-1345 Y1230S): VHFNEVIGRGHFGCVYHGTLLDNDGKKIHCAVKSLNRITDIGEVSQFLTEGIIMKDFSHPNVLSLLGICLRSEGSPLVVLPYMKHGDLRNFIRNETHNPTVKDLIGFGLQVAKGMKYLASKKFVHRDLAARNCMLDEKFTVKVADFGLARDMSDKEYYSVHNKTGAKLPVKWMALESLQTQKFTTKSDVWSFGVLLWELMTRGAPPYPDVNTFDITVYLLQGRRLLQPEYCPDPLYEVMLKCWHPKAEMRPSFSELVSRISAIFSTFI
T4 sequence (P08581 1078-1345 D1228H): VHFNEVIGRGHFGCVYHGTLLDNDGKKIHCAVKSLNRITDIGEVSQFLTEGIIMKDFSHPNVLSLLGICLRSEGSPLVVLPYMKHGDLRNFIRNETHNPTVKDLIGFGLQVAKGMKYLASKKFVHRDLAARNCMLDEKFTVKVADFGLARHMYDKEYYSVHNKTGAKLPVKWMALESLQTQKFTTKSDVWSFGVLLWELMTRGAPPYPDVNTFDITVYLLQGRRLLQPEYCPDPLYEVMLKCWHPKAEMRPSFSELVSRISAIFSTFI
T6 sequence (P08581 1078-1345 Y1230C): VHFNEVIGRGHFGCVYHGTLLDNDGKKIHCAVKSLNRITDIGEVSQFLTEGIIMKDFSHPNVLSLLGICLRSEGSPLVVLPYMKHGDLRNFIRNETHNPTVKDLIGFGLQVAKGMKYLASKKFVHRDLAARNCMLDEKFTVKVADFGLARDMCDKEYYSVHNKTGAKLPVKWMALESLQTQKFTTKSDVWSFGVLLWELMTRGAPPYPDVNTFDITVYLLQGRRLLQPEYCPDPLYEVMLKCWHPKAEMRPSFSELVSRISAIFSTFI
T3 sequence (P08581 with tags, fused parts or gaps DEL963-1009 limits assumed): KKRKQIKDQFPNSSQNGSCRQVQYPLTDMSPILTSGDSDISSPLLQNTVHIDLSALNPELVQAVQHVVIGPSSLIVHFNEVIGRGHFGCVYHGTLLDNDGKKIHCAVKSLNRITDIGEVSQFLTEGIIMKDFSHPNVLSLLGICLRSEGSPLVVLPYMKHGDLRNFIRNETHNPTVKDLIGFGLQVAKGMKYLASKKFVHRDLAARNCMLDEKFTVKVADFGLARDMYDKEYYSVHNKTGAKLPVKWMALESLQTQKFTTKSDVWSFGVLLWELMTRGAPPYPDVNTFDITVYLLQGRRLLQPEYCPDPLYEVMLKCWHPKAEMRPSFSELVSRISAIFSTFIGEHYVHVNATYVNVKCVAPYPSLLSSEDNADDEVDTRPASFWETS
T5 sequence (P08581 1078-1345 F1200I limits assumed): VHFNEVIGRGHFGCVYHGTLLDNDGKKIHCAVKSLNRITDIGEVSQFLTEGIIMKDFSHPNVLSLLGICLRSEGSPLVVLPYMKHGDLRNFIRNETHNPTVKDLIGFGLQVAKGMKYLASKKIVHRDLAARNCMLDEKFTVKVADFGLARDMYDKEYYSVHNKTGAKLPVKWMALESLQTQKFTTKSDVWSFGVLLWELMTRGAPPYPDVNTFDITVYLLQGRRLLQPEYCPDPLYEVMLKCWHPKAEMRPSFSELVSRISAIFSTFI

Structure (SMILES)	pIC50 [1]	pIC50 [2]	pIC50 [3]	pIC50 (human MET kinase D1228H)	pIC50 (human MET kinase F1200I)	pIC50 (human MET kinase Y1230C)	pIC50 (human MET kinase Y1230S)
COc1cc2nccc(Oc3ccc(NC(=O)c4cn(C(C)C)cc(-c5ccc(F)cc5)c4=O)nc3)c2cc1OC [Example 1]	8.30	8.62	8.59	8.74	8.60	8.82	8.89
COc1cc2nccc(Oc3ccc(NC(=O)c4cn(C)cc(-c5ccc(F)cc5)c4=O)nc3)c2cc1OC [Example 2]	8.22	8.19	8.28	7.78	8.17	8.02	8.01
CCn1cc(C(=O)Nc2ccc(Oc3ccnc4cc(OC)c(OC)cc34)cn2)c(=O)c(-c2ccc(F)cc2)c1 [Example 3]	8.30	8.49	8.52	8.33	8.30	8.38	8.33
COc1cc2nccc(Oc3ccc(NC(=O)c4cn(C(C)C)cc(-c5ccc(F)cc5F)c4=O)nc3)c2cc1OC [Example 4]	8.30	8.68	8.77	8.49	8.52	8.55	8.66
COc1cc2nccc(Oc3ccc(NC(=O)c4cn(C(C)C)cc(-c5ccc(Cl)cc5)c4=O)nc3)c2cc1OC [Example 5, 5-(4-chlorophenyl)-N-(5-((6,7-dimethoxyquinolin-4-yl)oxy)pyridin-2-yl)-1-isopropyl-4-oxo-1,4-dihydropyridine-3-carboxamide]	7.92	8.19	8.19	8.02	8.24	8.09	8.27
COc1cc2nccc(Oc3ccc(NC(=O)c4cn(C(C)C)cc(-c5ccc(F)c(F)c5)c4=O)nc3)c2cc1OC [Example 6]	7.96	8.06	8.11	7.92	8.09	7.91	7.92
COCCn1cc(C(=O)Nc2ccc(Oc3ccnc4cc(OC)c(OC)cc34)cn2)c(=O)c(-c2ccc(F)cc2)c1 [Example 7, N-(5((6,7-dimethoxyquinolin-4-yl)oxy)pyridin-2-yl)-5-(4-fluorophenyl)-1-(2-methoxyethyl)-4-oxo-1,4-dihydropyridine-3-carboxamide]	8.15	8.51	8.59	8.70	8.43	8.54	8.68
COc1cc2nccc(Oc3ccc(NC(=O)c4cn(CC5CCOCC5)cc(-c5ccc(F)cc5)c4=O)nc3)c2cc1OC [Example 8, N-(5-((6,7-dimethoxyquinolin-4-yl)oxy)pyridin-2-yl)-5-(4-fluorophenyl)-4-oxo-1-((tetrahydro-2H-pyran-4-yl)methyl)-1,4-dihydropyridine-3-carboxamide]	7.82	8.39	8.41	8.14	8.31	8.13	8.37
COc1cc2nccc(Oc3ccc(NC(=O)c4cn(CC(C)(C)O)cc(-c5ccc(F)cc5)c4=O)nc3)c2cc1OC [Example 9, N-(5-((6,7-dimethoxyquinolin-4-yl)oxy)pyridin-2-yl)-5-(4-fluorophenyl)-1-(2-hydroxy-2-methylpropyl)-4-oxo-1,4-dihydropyridine-3-carboxamide]	7.89	8.54	8.25	8.00	8.19	8.21	8.04
CCCn1cc(C(=O)Nc2ccc(Oc3ccnc4cc(OC)c(OC)cc34)cn2)c(=O)c(-c2ccc(F)cc2)c1 [Example 10, N-(5((6,7-dimethoxyquinolin-4-yl)oxy)pyridin-2-yl)-5-(4-fluorophenyl)-4-oxo-1-propyl-1,4-dihydropyridine-3-carboxamide]	7.82	8.44	8.46	8.43	8.38	8.51	8.55
COc1cc2nccc(Oc3ccc(NC(=O)c4cn(CC(C)C)cc(-c5ccc(F)cc5)c4=O)nc3)c2cc1OC [Example 11, N-(5-((6,7-dimethoxyquinolin-4-yl)oxy)pyridin-2-yl)-5-(4-fluorophenyl)-1-isobutyl-4-oxo-1,4-dihydropyridine-3-carboxamide]	7.48	8.11	8.11	8.19	8.16	8.19	8.31
COc1cc2nccc(Oc3ccc(NC(=O)c4cn(C5CCOCC5)cc(-c5ccc(F)cc5)c4=O)nc3)c2cc1OC [Example 12, N-(5((6,7-dimethoxyquinolin-4-yl)oxy)pyridin-2-yl)-5-(4-fluorophenyl)-4-oxo-1-(tetrahydro-2H-pyran-4-yl)-1,4-dihydropyridine-3-carboxamide]	7.64	8.27	8.25	8.08	8.15	8.26	8.34
COc1cc2nccc(Oc3ccc(NC(=O)c4cn(CC(=O)N(C)C)cc(-c5ccc(F)cc5F)c4=O)nc3)c2cc1OC [Example 13, 5-(2,4-difluorophenyl)-N-(5((6,7-dimethoxyquinolin-4-yl)oxy)pyridin-2-yl)-1-(2-(dimethylamino)-2-oxoethyl)-4-oxo-1,4-dihydropyridine-3-carboxamide]	7.66	8.47	8.31	8.36	8.32	8.48	8.22
COc1cc2nccc(Oc3ccc(NC(=O)c4cn(CC(=O)N5CCCC5)cc(-c5ccc(F)cc5F)c4=O)nc3)c2cc1OC [Example 14]	6.89	8.11	7.80	7.45	7.91	8.26	7.79
COc1cc2nccc(Oc3ccc(NC(=O)c4cn(CC(=O)N5CCOCC5)cc(-c5ccc(F)cc5F)c4=O)nc3)c2cc1OC [Example 15, 5-(2,4-difluorophenyl)-N-(5-((6,7-dimethoxyquinolin-4-yl)oxy)pyridin-2-yl)-1-(2-morpholino-2-oxoethyl)-4-oxo-1,4-dihydropyridine-3-carboxamide]	6.53	7.47	7.53	7.00	7.61	7.18	7.27
COc1cc2nccc(Oc3ccc(NC(=O)c4cn(C(C)C)c(C(C)C)c(-c5ccc(F)cc5)c4=O)nc3)c2cc1OC [Example 38, N-(5-((6,7-dimethoxyquinolin-4yl)oxy)pyridin-2-yl)-5-(4-fluorophenyl)-1,6-diisopropyl-4-oxo-1,4-dihydropyridine-3-carboxamide]	7.74						
COc1cc2nc(C)cc(Oc3ccc(NC(=O)c4cn(C(C)C)cc(-c5ccc(F)cc5)c4=O)nc3)c2cc1OC [Example 53, N-(5-((6,7-dimethoxy-2-methylquinolin-4-yl)oxy)pyridin-2-yl)-5-(4-fluorophenyl)-1-isopropyl-4-oxo-1,4-dihydropyridine-3-carboxamide]	< 6.00	5.51		5.37	5.43	5.48	5.43

— US20200216416A1, “QUINOLINE COMPOUNDS AS INHIBITORS OF TAM AND MET KINASES” (Array BioPharma Inc., priority 2019, published 2020)
